The values that follow come from publication PMC8330735 (Journal of Enzyme Inhibition and Medicinal Chemistry, 2021).

What is called IC50 is the concentration at which inhibition is half-maximal. Read a high IC50 as lower potency.

Each structure is given as a SMILES string.

One assay relates to HCA7 cells. Description: MTS cell viability assay HCA7. The assay is classed as cell-based. The settings on record: Homo sapiens, HCA-7, 48 h, cell line highly expressing COX-2. As to the method: Human colorectal cancer cell lines, HCT116 and HT29, and RAW 264.7 macrophages were obtained from ATCC (Manassas, VA). HCA7 colorectal cancer cell line was obtained from Sigma. HT29 and HCT116 cells were cultured in McCoy's 5 A medium (Sigma Aldrich, St. Louis, MO) containing 10% heat-inactivated foetal bovine serum (HI-FBS) (Gibco, USA), 100 μg/mL streptomycin (Invitrogen, USA), and […] penicillin (Invitrogen, USA)[40]. HCA7 and RAW 264.7 cells were cultured in Dulbecco's minimal essential media (DMEM, Invitrogen) containing 10% HI-FBS, sodium pyruvate (1 mM), penicillin ([…]), and streptomycin (100 mg/m)[41]^,[42].
Cells were cultured in 96‐well plates for 48 h and then treated with serum-free media containing different concentrations of the tested compounds (12.5, 25, 50, 100 and 150 µM). After 48 h., MTS reagent (Promega) was added as directed by the manufacturer, and then, the absorbance was measured at 495 nm. The absorbance is proportional to the number of viable cells. IC50 was calculated from the dose-response curves as described previously[45] using GraphPad Prism 8 software (GraphPad Software, San Diego, CA).
On the technique in general: Formazan colour is commonly taken as a measure of viable cells.

Assay [1] has as its system carrageenan-induced rat paw oedema. Kind of assay: Carrageenan-induced rat paw oedema test. The assay is classed as in vivo. The following applies: compounds and celecoxib 50 mg/kg, ibuprofen and indomethacin 20 mg/kg; for Mean oedema thickness 1h: 1 h after carrageenan; for Mean oedema thickness 1h / Mean oedema thickness 2h / Mean oedema thickness 3h / Mean oedema thickness 4h / Mean oedema thickness 5h / Mean oedema thickness 24h / Mean oedema thickness 0h: mean ± SEM, n = 5; for Mean oedema thickness 2h: 2 h after carrageenan; for Mean oedema thickness 3h: 3 h after carrageenan; for Mean oedema thickness 4h: 4 h after carrageenan; for Mean oedema thickness 5h: 5 h after carrageenan; for Mean oedema thickness 24h: 24 h after carrageenan; for Mean oedema thickness 0h: before carrageenan (0 h); for Average oedema inhibition%: from area under the curve of all time points.

In the assay with HCA7 cells, `CC(C)Cc1ccc(C(C)C(=O)NN2C(=O)c3ccccc3N(C)C2c2ccc([N+](=O)[O-])cc2)cc1` (stereo not drawn) [7c, 2-(4-Isobutylphenyl)-N-(1-methyl-2-(4-nitrophenyl)-4-oxo-1,4-dihydroquinazolin-3(2H)-yl) propenamide] yielded an IC50 greater than 150 µM. Also, in assay [1], the “Mean oedema thickness 1h” value is 1.79 ± 0.04 mm, the “Mean oedema thickness 2h” value amounted to 2.21 ± 0.35 mm, the “Mean oedema thickness 3h” value worked out at 1.90 ± 0.44 mm and the “Mean oedema thickness 4h” value is 1.62 ± 0.26 mm. For the same compound, in assay [1], the “Mean oedema thickness 5h” value was 1.55 ± 0.29 mm, the “Mean oedema thickness 24h” value turned out to be 0.06 ± 0.04 mm, the “Mean oedema thickness 0h” value is listed as 0.00 ± 0.00 mm and the Average oedema inhibition% was 45.37%.

The compound `NNC(=O)CSc1nc2ccccc2c(=O)n1NC(=O)Cc1ccccc1` [13b, N-(2-((2-hydrazinyl-2-oxoethyl)thio)-4-oxoquinazolin-3(4H)-yl)-2-phenylacetamide] gave an IC50 in the assay with HCA7 cells greater than 150 µM. In assay [1], the “Mean oedema thickness 1h” value is 2.26 ± 0.30 mm, the “Mean oedema thickness 2h” value is listed as 2.58 ± 0.41 mm, the “Mean oedema thickness 3h” value amounted to 2.67 ± 0.15 mm and the “Mean oedema thickness 4h” value was found to be 1.97 ± 0.29 mm. In assay [1], the “Mean oedema thickness 5h” value turned out to be 1.61 ± 0.23 mm, the “Mean oedema thickness 24h” value was found to be 0.45 ± 0.14 mm, the “Mean oedema thickness 0h” value amounted to 0.00 ± 0.00 mm and the Average oedema inhibition% is recorded as 45.49%.
